PubChem BioAssay (NCI)
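Compound exposure: 48 hours, 5 concentrations, 96-well plates. TGI denotes the concentration required for complete inhibition of growth.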

Tests used:
Assay in all cases: NCI anticancer screen, dose series, 48 h
CAKI-1 renal = test system: CAKI-1 renal
SK-MEL-28 melanoma = test system: SK-MEL-28 melanoma
M14 melanoma = test system: M14 melanoma
NCI-H460 lung = test system: NCI-H460 lung
RXF 393 renal = test system: RXF 393 renal
PC-3 prostate = test system: PC-3 prostate
MOLT-4 leukemia = test system: MOLT-4 leukemia
UACC-257 melanoma = test system: UACC-257 melanoma
TK-10 renal = test system: TK-10 renal
NCI-H23 lung = test system: NCI-H23 lung
HCT-116 colon = test system: HCT-116 colon
LOX IMVI melanoma = test system: LOX IMVI melanoma
NCI-H522 lung = test system: NCI-H522 lung
OVCAR-3 ovarian = test system: OVCAR-3 ovarian
SNB-75 CNS = test system: SNB-75 CNS
SK-MEL-5 melanoma = test system: SK-MEL-5 melanoma
K-562 leukemia = test system: K-562 leukemia
NCI-H226 lung = test system: NCI-H226 lung
HCC-2998 colon = test system: HCC-2998 colon
SF-268 CNS = test system: SF-268 CNS
OVCAR-5 ovarian = test system: OVCAR-5 ovarian
HT29 colon = test system: HT29 colon
UO-31 renal = test system: UO-31 renal
SK-MEL-2 melanoma = test system: SK-MEL-2 melanoma
SK-OV-3 ovarian = test system: SK-OV-3 ovarian
A549 NSCLC = test system: A549 NSCLC
NCI/ADR-RES ovarian = test system: NCI/ADR-RES ovarian
MALME-3M melanoma = test system: MALME-3M melanoma
SN12C renal = test system: SN12C renal
SF-539 CNS = test system: SF-539 CNS
RPMI-8226 leukemia = test system: RPMI-8226 leukemia
CCRF-CEM leukemia = test system: CCRF-CEM leukemia
KM12 colon = test system: KM12 colon
OVCAR-8 ovarian = test system: OVCAR-8 ovarian
SR leukemia = test system: SR leukemia
MDA-N = test system: MDA-N
ACHN renal = test system: ACHN renal
UACC-62 melanoma = test system: UACC-62 melanoma
U251 CNS = test system: U251 CNS
HL-60(TB) leukemia = test system: HL-60(TB) leukemia
MDA-MB-435 = test system: MDA-MB-435
OVCAR-4 ovarian = test system: OVCAR-4 ovarian
786-0 renal = test system: 786-0 renal
COLO 205 colon = test system: COLO 205 colon
HOP-62 NSCLC = test system: HOP-62 NSCLC
SF-295 CNS = test system: SF-295 CNS
HS 578T breast = test system: HS 578T breast
MDA-MB-231 breast = test system: MDA-MB-231 breast
HOP-92 NSCLC = test system: HOP-92 NSCLC
EKVX NSCLC = test system: EKVX NSCLC
IGROV1 ovarian = test system: IGROV1 ovarian
HCT-15 colon = test system: HCT-15 colon
SNB-19 CNS = test system: SNB-19 CNS
SW-620 colon = test system: SW-620 colon
MCF7 breast = test system: MCF7 breast
DU-145 prostate = test system: DU-145 prostate
BT-549 breast = test system: BT-549 breast
A498 renal = test system: A498 renal
T-47D breast = test system: T-47D breast

Work on COC(=O)NCCc1[nH]nc2c1C(=O)C=C(OC)C2=O yielded a TGI (CAKI-1 renal) of 45.5 µM, a TGI (SK-MEL-28 melanoma) of 35.3 µM and a TGI (M14 melanoma) of 33.9 µM. It also gave a TGI (NCI-H460 lung) of over 100 µM, a TGI (RXF 393 renal) of 31.4 µM and a TGI (PC-3 prostate) of 95.8 µM. The TGI (MOLT-4 leukemia) was 46.4 µM, the TGI (UACC-257 melanoma) was 28.3 µM and the TGI (TK-10 renal) was over 100 µM. The TGI (NCI-H23 lung) was 44.4 µM, the TGI (HCT-116 colon) was 32.6 µM and the TGI (LOX IMVI melanoma) was 33.7 µM. The TGI (NCI-H522 lung) was 44.3 µM, the TGI (OVCAR-3 ovarian) was 32 µM and the TGI (SNB-75 CNS) was 40.2 µM. The TGI (SK-MEL-5 melanoma) was 28.9 µM, the TGI (K-562 leukemia) was 37.3 µM and the TGI (NCI-H226 lung) was 50.5 µM. For the same compound, the TGI (HCC-2998 colon) was over 100 µM, the TGI (SF-268 CNS) was 36 µM and the TGI (OVCAR-5 ovarian) was 37.8 µM. It also gave a TGI (HT29 colon) of over 100 µM, a TGI (UO-31 renal) of 50.1 µM and a TGI (SK-MEL-2 melanoma) of over 100 µM. The TGI (SK-OV-3 ovarian) was over 100 µM, the TGI (A549 NSCLC) was over 100 µM and the TGI (NCI/ADR-RES ovarian) was over 100 µM. For the same compound, the TGI (MALME-3M melanoma) was 28.8 µM, the TGI (SN12C renal) was 38.8 µM and the TGI (SF-539 CNS) was 33.5 µM. The TGI (RPMI-8226 leukemia) was 53.9 µM, the TGI (CCRF-CEM leukemia) was 45.8 µM and the TGI (KM12 colon) was 41.3 µM. The TGI (OVCAR-8 ovarian) was 42.8 µM, the TGI (SR leukemia) was 36.6 µM and the TGI (MDA-N) was 33.3 µM. It also gave a TGI (ACHN renal) of 37 µM, a TGI (UACC-62 melanoma) of 48.7 µM and a TGI (U251 CNS) of 32 µM. The TGI (HL-60(TB) leukemia) was 44 µM, the TGI (MDA-MB-435) was 27.7 µM and the TGI (OVCAR-4 ovarian) was 35.5 µM. It also gave a TGI (786-0 renal) of 36.2 µM, a TGI (COLO 205 colon) of 52.8 µM and a TGI (HOP-62 NSCLC) of 36 µM. It also gave a TGI (SF-295 CNS) of 32.2 µM, a TGI (HS 578T breast) of 88.1 µM and a TGI (MDA-MB-231 breast) of 30.4 µM. It also gave a TGI (HOP-92 NSCLC) of 37.7 µM, a TGI (EKVX NSCLC) of 44.5 µM and a TGI (IGROV1 ovarian) of 34.9 µM. For the same compound, the TGI (HCT-15 colon) was 71.6 µM, the TGI (SNB-19 CNS) was 45.6 µM and the TGI (SW-620 colon) was 43.9 µM. For the same compound, the TGI (MCF7 breast) was 48.1 µM and the TGI (DU-145 prostate) was over 100 µM.

With C=C1CC/C=C(/C(=O)O)CC[C@H]2[C@@H]1CC2(C)C the TGI (CAKI-1 renal) was over 100 µM, the TGI (SK-MEL-28 melanoma) was over 100 µM and the TGI (M14 melanoma) was over 100 µM. For the same compound, the TGI (NCI-H460 lung) was over 100 µM, the TGI (RXF 393 renal) was over 100 µM and the TGI (PC-3 prostate) was over 100 µM. It also gave a TGI (MOLT-4 leukemia) of over 100 µM, a TGI (UACC-257 melanoma) of over 100 µM and a TGI (TK-10 renal) of over 100 µM. It also gave a TGI (NCI-H23 lung) of over 100 µM, a TGI (HCT-116 colon) of over 100 µM and a TGI (LOX IMVI melanoma) of over 100 µM. For the same compound, the TGI (NCI-H522 lung) was over 100 µM, the TGI (OVCAR-3 ovarian) was over 100 µM and the TGI (SK-MEL-5 melanoma) was over 100 µM. For the same compound, the TGI (K-562 leukemia) was over 100 µM, the TGI (NCI-H226 lung) was over 100 µM and the TGI (HCC-2998 colon) was over 100 µM. For the same compound, the TGI (SF-268 CNS) was over 100 µM, the TGI (OVCAR-5 ovarian) was over 100 µM and the TGI (HT29 colon) was over 100 µM. It also gave a TGI (UO-31 renal) of over 100 µM, a TGI (SK-MEL-2 melanoma) of over 100 µM and a TGI (SK-OV-3 ovarian) of over 100 µM. The TGI (A549 NSCLC) was over 100 µM, the TGI (MALME-3M melanoma) was over 100 µM and the TGI (SN12C renal) was over 100 µM. It also gave a TGI (SF-539 CNS) of over 100 µM, a TGI (RPMI-8226 leukemia) of over 100 µM and a TGI (CCRF-CEM leukemia) of over 100 µM. For the same compound, the TGI (BT-549 breast) was over 100 µM, the TGI (KM12 colon) was over 100 µM and the TGI (A498 renal) was over 100 µM. The TGI (MDA-N) was over 100 µM, the TGI (ACHN renal) was over 100 µM and the TGI (UACC-62 melanoma) was over 100 µM. The TGI (U251 CNS) was over 100 µM, the TGI (HL-60(TB) leukemia) was over 100 µM and the TGI (MDA-MB-435) was over 100 µM. The TGI (OVCAR-4 ovarian) was over 100 µM, the TGI (786-0 renal) was over 100 µM and the TGI (COLO 205 colon) was over 100 µM. The TGI (HOP-62 NSCLC) was over 100 µM, the TGI (T-47D breast) was over 100 µM and the TGI (SF-295 CNS) was over 100 µM. It also gave a TGI (HS 578T breast) of over 100 µM, a TGI (MDA-MB-231 breast) of over 100 µM and a TGI (HOP-92 NSCLC) of over 100 µM. It also gave a TGI (EKVX NSCLC) of over 100 µM, a TGI (IGROV1 ovarian) of over 100 µM and a TGI (HCT-15 colon) of over 100 µM. The TGI (SNB-19 CNS) was over 100 µM, the TGI (SW-620 colon) was over 100 µM and the TGI (MCF7 breast) was over 100 µM. For the same compound, the TGI (DU-145 prostate) was over 100 µM.
